Read-outs that look alike come from different tables or passages of the source.
How the values were obtained:
[1] = system: cleaved PARP (Asp214) in A549 cells; test: Western blot of cleaved PARP, A549; assay type: cell-based, human; conditions: for cleaved PARP expression (fold), Mean: 24 h, vs 0 μM
Experimental: (§1) Cells were plated at 200,000 cells/well in a 6-well plate and allowed to adhere for 24 h. They were then treated with the tested compound at varying concentrations for 24 h. For A549 cells, treatment was performed in serum-free medium for 24 h, followed by stimulation with 100 ng/mL human EGF for 10 min prior to harvesting. Cells were harvested by trypsinization, lysed in RIPA buffer [50 mM Tris-HCl (pH 7.4), 150 mM NaCl, 1% NP-40, 1% Na-deoxycholate, and 0.1% SDS] with protease and phosphatase inhibitors, and incubated on ice for 30 min. Lysates were centrifuged, and protein concentration was determined using the Bradford assay. Equal amounts (30 μg) were separated by 10% SDS-PAGE and transferred to a […] membrane (Immobilon®-P, Merck Millipore, Burlington, MA, USA). The membrane was blocked with 5% skim milk in 1X TBST and incubated overnight at 4 °C with primary antibodies (Table S2) diluted 1:1000 in 1% skim milk-TBST or 1% BSA-TBST. After washing, membranes were incubated at room temperature for 1 h with secondary antibodies—goat anti-Rabbit IgG or goat anti-Mouse IgG (Invitrogen, Waltham, MA, USA)—diluted 1:2000. Protein signals were detected using Luminata^TM Crescendo Western HRP Substrate (Merck Millipore) and imaged with an ImageQuant 800 system (GE Healthcare Bio-Sciences, Uppsala, Sweden). The auto exposure mode was selected to automatically adjust the exposure time to prevent image saturation. The detected signal was quantified using Image Studio Lite (version 5.2, LICORbio^TM, Lincoln, NE, USA).

A549 cells [2] = test: MTT cell viability assay, A549; assay type: cell-based; conditions: Homo sapiens, 72 h, mean ± SEM (n = 3)
Experimental: (§2) Cells were seeded in a 96-well plate at 1,500 cells/well and incubated at 37 °C for 24 h. After incubation, the culture medium was replaced with fresh medium containing various concentrations of asiatic acid. Cells treated with 0.8% (v/v) DMSO served as the vehicle control. After 72 h, cells were incubated with 100 μL of MTT solution (0.5 mg/mL in PBS) for 4 h at 37 °C. The solution was then removed, 100 μL of DMSO was added, and the plate was protected from light with gentle agitation for 15 min. Absorbance was recorded at 540 nm using a Sunrise microplate reader (Tecan Group Ltd., Männedorf, Switzerland).

[3] = system: p-Akt (Ser473) in H1975 cells; test: Western blot of p-Akt, H1975; assay type: cell-based, human; conditions: for p-Akt expression (fold), Mean: 24 h, vs DMSO
Experimental: as §1

[4] = system: BEAS-2B normal lung epithelial cells; test: MTT cell viability assay, BEAS-2B; assay type: cell-based, human
Experimental: as §2

L858R/T790M EGFR = target: T1, L858R/T790M EGFR (Homo sapiens, UniProt P00533, L858R/T790M); test: ADP-Glo kinase assay, double-mutant EGFR; assay type: biochemical; conditions: mean ± SEM (n = 3), read-out: IC50 kinase inhibition, L858R/T790M EGFR
T1 construct: purchased Sigma-Aldrich SRP0242
Experimental: The EGFR inhibitory activity of the tested compound was measured using the ADP-Glo^TM assay (Promega, WI, USA) according to a previous study [28]. […] For the positive control, 2 μL of DMSO was added in place of the tested compound. For the negative control, the EGFR enzyme was omitted and replaced with 5 μL of 1X kinase buffer. The plate was protected from light and incubated at room temperature for 1 h, followed by the addition of 5 μL ADP-Glo^TM reagent and a further 40-min incubation. To convert ADP to ATP, 10 μL of kinase detection reagent was added, followed by a 30-min incubation under the same conditions. ATP levels were then measured using a Varioskan LUX multimode microplate reader (Thermo Fisher Scientific, Waltham, MA, USA), and percent inhibition was calculated using Equation (1).(1) Inhibition activity %=positive − negative−sample −negative/positive−negative ×100
The IC50 of each compound was calculated using GraphPad Prism software (version 8.0.2, GraphPad Software, Inc., Boston, MA, USA).

H1975 cells [5] = test: Annexin V/PI apoptosis assay by flow cytometry, H1975; assay type: cell-based, human; conditions: 24 h
Experimental: Cells were plated in a 6-well plate at a density of 200,000 cells/well and allowed to adhere overnight at 37 °C. The following day, cells were treated with increasing concentrations of asiatic acid for 24 h. […] After treatment, cells were harvested by trypsinization and centrifugation. […] Propidium iodide (PI; P3566; Invitrogen^TM, Waltham, MA, USA) was then added, and apoptotic populations were analyzed using a BD FACSCalibur flow cytometer (BD Biosciences, Heidelberg, Germany).

A549 cells [6] = test: Annexin V/PI apoptosis assay by flow cytometry, A549; assay type: cell-based, human; conditions: 24 h
Experimental: Cells were plated in a 6-well plate at a density of 200,000 cells/well and allowed to adhere overnight at 37 °C. The following day, cells were treated with increasing concentrations of asiatic acid for 24 h. […] After treatment, cells were harvested by trypsinization and centrifugation. The cell pellets were stained with FITC-conjugated Annexin V (640945; BioLegend, San Diego, CA, USA) and incubated for 30 min at room temperature in the dark. Propidium iodide (PI; P3566; Invitrogen^TM, Waltham, MA, USA) was then added, and apoptotic populations were analyzed using a BD FACSCalibur flow cytometer (BD Biosciences, Heidelberg, Germany).

[7] = system: p-Akt (Ser473) in A549 cells; test: Western blot of p-Akt, A549; assay type: cell-based, human; conditions: for p-Akt expression (fold), Mean: 24 h, vs DMSO
Experimental: as §1

[8] = target: T2, EGFR protein in A549 cells (Homo sapiens, UniProt P00533); test: Cellular thermal shift assay (CETSA); assay type: binding; conditions: A549 cell lysates, 100 μM, 1 hour, heated at 40–60 °C, n = 2
T2 construct: endogenous in cells; host or cells: A549
Experimental: Figure S9. The cellular thermal shift assay. The stability of EGFR protein in A549 cells was assessed by treating cell lysates with either 0.2% DMSO or 100 μM asiatic acid for 1 hour. Following treatment, samples were heated at 40–60 °C for 3 minutes, rapidly cooled on ice for 10 minutes, and then centrifuged at 12,000 rpm at 4 °C for 30 minutes.
The supernatants were analyzed by Western blot, and relative band intensities were plotted against the corresponding heating temperatures. Data are expressed as mean ± […]
(1 picture or pasted object on this page, not shown here)

[9] = system: p-ERK (Thr202/Tyr204) in H1975 cells; test: Western blot of p-ERK, H1975; assay type: cell-based, human; conditions: for p-ERK expression (fold), Mean: 24 h, vs DMSO
Experimental: as §1

[10] = target: fibroblast growth factor receptor (FGFR); test: FGFR kinase inhibition (selectivity); assay type: biochemical
wild-type EGFR = target: T3, wild-type EGFR (Homo sapiens, UniProt P00533); test: ADP-Glo kinase assay, wild-type EGFR; assay type: biochemical; conditions: mean ± SEM (n = 3), read-out: IC50 kinase inhibition, Wild-Type EGFR
T3 construct: purchased Sigma-Aldrich SRP0239

[11] = target: T4, p-EGFR (Tyr1068) in H1975 cells (Homo sapiens, UniProt P00533, L858R/T790M); test: Western blot of p-EGFR, H1975; assay type: cell-based; conditions: H1975, 6.25–50 μM, dose-dependent
T4 construct: endogenous in cells; host or cells: H1975
Experimental: as §1, with “After washing, membranes were incubated at room temperature for 1 h with secondary antibodies—goat anti-Rabbit IgG or goat anti-Mouse IgG (Invitrogen, Waltham, MA, USA)—diluted 1:2000.” left out, “The auto exposure mode was selected to automatically adjust the exposure time to prevent image saturation.” left out

[12] = system: p-ERK (Thr202/Tyr204) in A549 cells; test: Western blot of p-ERK, A549; assay type: cell-based, human; conditions: for p-ERK expression (fold), Mean: 24 h, vs DMSO
Experimental: as §1

H1975 cells [13] = test: MTT cell viability assay, H1975; assay type: cell-based; conditions: Homo sapiens, NCI-H1975
Experimental: as §2

[14] = system: cleaved PARP (Asp214) in H1975 cells; test: Western blot of cleaved PARP, H1975; assay type: cell-based, human; conditions: for cleaved PARP expression (fold), Mean: 24 h, vs 0 μM
Experimental: as §1

[15] = target: T5, p-EGFR (Tyr1068) in A549 cells (Homo sapiens, UniProt P00533); test: Western blot of p-EGFR, EGF-stimulated A549; assay type: cell-based; conditions: for p-EGFR expression (fold), Mean: A549, EGF-stimulated (+), vs DMSO (+)
T5 construct: endogenous in cells; host or cells: A549
Experimental: as §1

[16] = A549, 100 μM, listed as AS-PN005

## C[C@H]1[C@H](C)CC[C@]2(C(=O)O)CC[C@]3(C)C(=CC[C@@H]4[C@@]5(C)C[C@@H](O)[C@H](O)[C@@](C)(CO)[C@@H]5CC[C@]43C)[C@H]12 [Asiatic acid, asiatic acid]
[1]; A549, 25 μM
  cleaved PARP expression (fold), Mean: 3.12 fold
[1]; A549, 50 μM
  cleaved PARP expression (fold), Mean: 4.42 fold
[1]; A549, 100 μM
  cleaved PARP expression (fold), Mean: 6.86 fold
[1]; A549, 25–100 μM, p < 0.0001
  cleaved PARP (Asp214) levels, in words: significant, concentration-dependent increase
A549 cells [2]
  IC50: 64.5 ± 2.49 µM
[3]; H1975, 6.25 μM
  p-Akt expression (fold), Mean: 0.747 fold
[3]; H1975, 12.5 μM
  p-Akt expression (fold), Mean: 0.696 fold
[3]; H1975, 25 μM
  p-Akt expression (fold), Mean: 0.605 fold
[3]; H1975, 50 μM
  p-Akt expression (fold), Mean: 0.423 fold
[3]; H1975, 6.25–50 μM, p < 0.0001
  p-Akt level, in words: significant, dose-dependent decrease
[4]; Homo sapiens, BEAS-2B, 72 h, mean ± SEM (n = 3)
  IC50: 184 ± 5.38 µM
[4]; concentrations ≤100 μM (12.5–100 μM)
  cytotoxicity in BEAS-2B cells: no notable cytotoxicity
L858R/T790M EGFR
  IC50: 0.000348 ± 5.5e-05 µM
H1975 cells [5]; H1975, 50 μM
  increase of apoptotic cell population relative to DMSO-treated group: about twofold
A549 cells [6]; A549, 100 μM
  increase of apoptotic cell population relative to DMSO-treated group: approximately threefold
[7]; A549, 12.5 μM
  p-Akt expression (fold), Mean: 0.454 fold
[7]; A549, 25 μM
  p-Akt expression (fold), Mean: 0.393 fold
[7]; A549, 50 μM
  p-Akt expression (fold), Mean: 0.336 fold
[7]; A549, 100 μM
  p-Akt expression (fold), Mean: reducing these proteins more than erlotinib
[7]; [16]
  p-Akt expression (fold), Mean: 0.147 fold
[7]; A549, 12.5–100 μM
  p-Akt levels compared to the vehicle control, in words: significantly decreased
[8]
  thermal stability of EGFR protein (CETSA): markedly enhanced the stability
[9]; H1975, 6.25 μM
  p-ERK expression (fold), Mean: 0.755 fold
[9]; H1975, 12.5 μM
  p-ERK expression (fold), Mean: 0.636 fold
[9]; H1975, 25 μM
  p-ERK expression (fold), Mean: 0.566 fold
[9]; H1975, 50 μM
  p-ERK expression (fold), Mean: 0.458 fold
[9]; H1975, 6.25–50 μM, p < 0.0001
  p-ERK level, in words: significant, dose-dependent decrease
[10]; Figure S8
  IC50: 0.000471 µM
[10]; ratio of kinase IC50 values
  selectivity for EGFR over FGFR: approximately 13.5 fold
wild-type EGFR
  IC50: 0.035 ± 0.002 nM
[11]
  p-EGFR levels, in words: significantly reduced
[12]; A549, 12.5 μM
  p-ERK expression (fold), Mean: 0.427 fold
[12]; A549, 25 μM
  p-ERK expression (fold), Mean: 0.402 fold
[12]; A549, 50 μM
  p-ERK expression (fold), Mean: 0.294 fold
[12]; A549, 100 μM
  p-ERK expression (fold), Mean: reducing these proteins more than erlotinib
[12]; [16]
  p-ERK expression (fold), Mean: 0.103 fold
[12]; A549, 12.5–100 μM
  p-ERK levels compared to the vehicle control, in words: significantly decreased
H1975 cells [13]; H1975, MTT, 72 h, mean ± SEM (n = 3), read-out: IC50 cell viability
  IC50: 36.6 ± 0.86 µM
H1975 cells [13]; H1975, concentrations of ≥100 μM, read-out: cell viability
  viability at 100 µM: < 40%
[14]; H1975, 12.5 μM
  cleaved PARP expression (fold), Mean: 7.26 fold
[14]; H1975, 25 μM
  cleaved PARP expression (fold), Mean: 9.99 fold
[14]; H1975, 50 μM
  cleaved PARP expression (fold), Mean: 14.15 fold
[14]; H1975, 12.5–50 μM, p < 0.0001
  cleaved PARP expression, in words: significantly elevated
[15]; A549, 12.5–100 μM, concentration-dependent
  EGF-induced EGFR phosphorylation, in words: significantly inhibited
[15]; 12.5 μM
  p-EGFR expression (fold), Mean: 0.75 fold
[15]; 25 μM
  p-EGFR expression (fold), Mean: 0.40 fold
[15]; 50 μM
  p-EGFR expression (fold), Mean: 0.36 fold
[15]; 100 μM
  p-EGFR expression (fold), Mean: 0.21 fold

## C=CC(=O)Nc1cc(Nc2nccc(-c3cn(C)c4ccccc34)n2)c(OC)cc1N(C)CCN(C)C [Osimertinib]
H1975 cells [5]; H1975, 5 μM
  increase of apoptosis compared to the untreated group: threefold
H1975 cells [13]; H1975, 3.125 μM, n = 3
  viability at 3.125 µM: 61.5%
H1975 cells [13]; H1975, 6.25 μM, n = 3
  viability at 6.25 µM: 44.8%
H1975 cells [13]; H1975, 12.5 μM, n = 3
  viability at 12.5 µM: 23.8%
H1975 cells [13]; H1975, 25 μM, n = 3
  viability at 25 µM: 12.1%
H1975 cells [13]; H1975, 50 μM, n = 3
  viability at 50 µM: 7.89%
H1975 cells [13]; H1975, 100 μM, n = 3, read-out: Cell viability (%) Mean
  viability at 100 µM: 0.43%
H1975 cells [13]; Table S1, n = 3, read-out: IC50 (μM) Mean, H1975 cell viability
  IC50: 4.14 µM

## C#Cc1cccc(Nc2ncnc3cc(OCCOC)c(OCCOC)cc23)c1 [Erlotinib, reference compound]
A549 cells [6]; A549, 10 μM
  increase of apoptosis compared to the untreated group: approximately twofold
